{
  "source": "patent US11485762B2",
  "about": "“Compositions and methods for inhibition of L-plastin activity in osteoclasts to reduce bone loss” (University of Maryland, Baltimore, priority 2017, dated 2022)",
  "tested_on": "endogenous LPL",
  "assay": "Phosphorylation of endogenous LPL in osteoclasts derived from RAW cells",
  "type": "cell-based",
  "details": "bone particles and TNF-α",
  "description": "C57/BL6 mice were used for osteoclast preparation as described previously (Chellaiah et al., 2000, J. Cell Biol., 148: 665.678; Chellaiah et al., 2007, J. Biol. Chem., 282: 10104-10116). Osteoclasts were generated in vitro using mouse bone marrow (BM) cells as described (Chellaiah et al., 2000, J. Cell Biol., 148: 665-678; Chellaiah et al., 2007, J. Biol. Chem., 282: 10104.10116). Osteoclasts differentiated from RAW 264.7 cells were also used to corroborate a few of the observations made with osteoclasts derived from mouse BM cells. Osteoclasts from RAW 264.7 cells were generated as described previously (Gupta et al., 2003, J Bone Miner Res 18: 669-685). Conditions were established that offer >90% population of mature multinucleated osteoclasts from both mouse bone marrow and RAW cells.\nAfter flushing the marrow cells for osteoclast differentiation, long mouse bones (free of cells inside and muscles outside) were washed extensively with PBS and kept in ethanol until use. Long bones were air-dried in the hood and homogenized by a mini blender. Bone particles were sieved, and bone particles 60-80 μm in size were used for experiments. The multinucleated osteoclasts were seen from day four onward from mouse BM or RAW cells. At this stage, osteoclasts were added with sterile native bone particles (100 μg/ml medium) for 3-4 hours or 12-14 hours in the presence of TNF-α (20 ng/ml). […]",
  "note": "Entries after “also recorded” stand apart in the source; their conditions may differ.",
  "data": [
    {"sequence": "MARGSVSDEE [Peptide P1, TAT-fused small molecular weight (10aa) amino-terminal LPL peptide, unsubstituted (S5S7)]", "values": [
      {"measurement": "phosphorylation of endogenous (cellular) LPL", "value": "significant decrease; also recorded: reduced"}
    ]}
  ]
}
